The values that follow come from US7816386B2, “Cinnamic, phenylpropiolic and phenylpropanoic acid derivatives useful as anti-tumor agents” (Sigma-Tau Industrie Farmaceutiche Riunite S.p.A., priority 2005, dated 2010).

For data set [1], the system named is NB4 human promyelocytic leukaemia. As to the kind of experiment: Cytotoxicity on NB4 tumour cells (sulphorodamine B). In kind it is cell-based. On the procedure:
(§1) To test the effects of the compounds on cell growth, NB4 human promyelocytic leukaemia, NCI-H460 non-small cell carcinoma cells and HCT-116 human colon carcinoma cells were used. NB4 and NCI-H460 tumour cells were grown RPMI 1640 containing 10% fetal bovine serum (GIBCO), whereas HCT-116 tumour cells were grown in McCoy's 5A containing 10% fetal bovine serum (GIBCO).
(§2) Tumour cells were seeded in 96-well tissue culture plates (Corning) at approximately 10% confluence and were allowed to attach and recover for at least 24 h. […] The plates were incubated for 24 h at 37° C. At the end of the treatment, for NB4 tumour cells in suspension, the procedure was performed as follows: medium culture was removed by centrifugation of the plates at 1600×g for 10 min and the surnatant was removed. 250 μl PBS were added, then the plates were centrifuged at 1600×g for 10 min, the surnatant was removed. 200 μl/well of medium culture RPMI 1640 containing 10% FCS were added and the plates were incubated at 37° C. for other 48 h. The plates were centrifuged again at 1600×g for 10 min, the medium culture was removed and 200 μl PBS and 50 μl of cold 80% TCA were added. The plates were incubated on ice for at least 1 h. TCA was removed, the plates were washed 3 times for immersion in distilled-water and dried on paper and at 40° C. for 5 min. Then 200 μl of 0.4% sulphorodamine B in 1% acetic acid were added. The plates were incubated at room temperature for other 30 min. Sulphorodamine B was removed, the plates were washed for immersion in 1% acetic acid for 3 times, then they were dried on paper and at 40° C. for 5 min. Then 200 μl Tris 10 mM were added, the plates were kept under stirring for 20 min. The survival cell was determined as optical density by a Multiskan spectrofluorimeter at 540 nm. For the tumour cells in adhesion (NCI-H460 and HCT-116), the procedure was as above mentioned, except that at the end of the treatment, the plates were washed by remotion of the surnatant and addition of PBS 3 times without centrifugation. Also the last day of the assay, the surnatant was removed without centrifugation.
(§3) The amount of cells killed was calculated as the percentage decrease in sulphorodamine B binding compared with control cultures.

In data set [2] the test system is HCT-116 human colon carcinoma cells. As to the kind of experiment: Cytotoxicity on HCT-116 tumour cells (sulphorodamine B). In kind it is cell-based. The settings on record: read-out: IC50 ± SD, HCT-116 (concentration which inhibits the 50% of cell survival), 24 h treatment, then other 48 h in drug-free medium. The method, then:
as §1, §2, §3

The test system of data set [3] is NCI-H460 non-small cell carcinoma cells. As to the kind of experiment: Cytotoxicity on NCI-H460 tumour cells (sulphorodamine B). The settings on record: for IC50: 24 h treatment, then other 48 h in drug-free medium, sulphorodamine B; for cytotoxic effect on survival of NCI-H460 tumour cells (in words): comparison among the compounds. In kind it is cell-based, human. On the procedure: as §1, §2, §3

The mark [4] stands for this setting: Homo sapiens, read-out: IC50 ± SD, NB4 (concentration which inhibits the 50% of cell survival), NB4 tumour cells, 24 h treatment, then other 48 h in drug-free medium.
[5] abbreviates: read-out: IC50 ± SD, NB4 (concentration which inhibits the 50% of cell survival), NB4 tumour cells, 24 h treatment, then other 48 h in drug-free medium.
[6] abbreviates: Homo sapiens, NCI-H460, read-out: IC50 ± SD, NCI-H460 (concentration which inhibits the 50% of cell survival), NCI-H460 tumour cells.

Molecules are shown by their SMILES. Where a name gives a salt, the structure may show the parent alone. Read-outs that look alike come from different tables or passages of the source.

For the molecule `O=C(/C=C/c1ccc(C=NOCc2ccccc2)cc1)NO` [ST2840, (2E)-3-(4-{[(benzyloxy)imino]methyl}phenyl)-N-hydroxyacrylamide], the IC50 is 600 to 800 nM in data set [1] (setting [4]), 600 ± 6 nM in data set [1] (setting [5]), 2800 ± 200 nM in data set [2] (Homo sapiens) and 1600 ± 100 nM in data set [3] (setting [6]).

Consider `O=C(/C=C/c1ccc2[nH]ccc2c1)NO` [ST2880, (2E)-N-hydroxy-3-(1H-indol-5-yl)acrylamide], for which the IC50 is 1400 to 2900 nM in data set [1] (setting [4]), 1800 ± 20 nM in data set [1] (setting [5]), 2700 ± 300 nM in data set [2] (Homo sapiens) and 5900 ± 500 nM in data set [3] (setting [6]). Further, the “cytotoxic effect on survival of NCI-H460 tumour cells (in words)” value (shortened to “cytotoxic effect on survival”) in data set [3] (NCI-H460 tumour cells) is reported as “minor cytotoxic effect”.

In the case of `O=C(/C=C/c1ccc(C=NNC(=O)c2ccc(Cl)cc2)cc1)NO` [ST2888, (2E)-N-hydroxy-3-(4-{[(4-chlorobenzoyl)hydrazono]-methyl}phenyl)acrylamide], the IC50 in data set [1] (setting [4]) is 600 to 800 nM; in data set [1] (setting [5]), 800 ± 20 nM; in data set [2] (Homo sapiens) it was 1800 ± 100 nM; in data set [3] (setting [6]), 3400 ± 300 nM.

With `O=C(/C=C/c1ccc(C=NO)cc1)NO` [ST2983, (2E)-N-hydroxy-3-{4-[(hydroxyimino)methyl]phenyl}acrylamide], the IC50 in data set [2] (Homo sapiens) amounted to 3500 ± 300 nM; in data set [3] (setting [6]) it was 6300 ± 400 nM. In data set [3] (NCI-H460 tumour cells), the “cytotoxic effect on survival” value was “minor cytotoxic effect”.

`C=CCON=Cc1ccc(/C=C/C(=O)NO)cc1` [ST2984, (2E)-N-hydroxy-3-(4-{[(allyloxy)imino]methyl}phenyl)acrylamide]: the IC50 in data set [1] (setting [4]) is 1400 to 2900 nM; in data set [1] (setting [5]), 1400 ± 70 nM; in data set [2] (Homo sapiens), 3500 ± 70 nM; in data set [3] (setting [6]), 3200 ± 90 nM.

Take `O=C(/C=C/c1ccc(C=NOc2ccccc2)cc1)NO` [ST2985, (2E)-N-hydroxy-3-{4-[(phenoxyimino)methyl]phenyl}acrylamide]: the IC50 in data set [1] (setting [4]) was 1400 to 2900 nM; in data set [1] (setting [5]), 2700 ± 90 nM; in data set [2] (Homo sapiens) it was 3700 ± 400 nM; in data set [3] (setting [6]) it was 5100 ± 300 nM. Moreover, the “cytotoxic effect on survival” value in data set [3] (NCI-H460 tumour cells) was “minor cytotoxic effect”.

Turning to `O=C(/C=C/c1ccc(C=NOCc2c(F)c(F)c(F)c(F)c2F)cc1)NO` [ST2986, (2E)-N-hydroxy-3-[4-({[(pentafluorobenzyl)oxy]imino}-methyl)phenyl]-acryl-amide], the IC50 is 700 ± 70 nM in data set [1] (setting [5]); 2400 ± 100 nM in data set [2]; 1600 ± 70 nM in data set [3] (read-out: IC50 ± SD, NCI-H460 (concentration which inhibits the 50% of cell survival), NCI-H460 tumour cells).

Regarding `O=C(/C=C/c1ccc(C=NOCc2ccc([N+](=O)[O-])cc2)cc1)NO` [ST2987, (2E)-N-hydroxy-3-[4-({[(4-nitrobenzyl)oxy]imino}-methyl)phenyl]acrylamide], the IC50 was 600 to 800 nM in data set [1] (setting [4]), 800 ± 10 nM in data set [1] (setting [5]), 1200 ± 200 nM in data set [2] (Homo sapiens) and 2600 ± 100 nM in data set [3] (setting [6]).

In the case of `COC(=O)c1ccc(CON=Cc2ccc(/C=C/C(=O)NO)cc2)cc1` [ST3049, (2E)-N-hydroxy-3-[4-({[(4-methoxycarbonylbenzyl)oxy]imino}-methyl)phenyl]-acrylamide], the IC50 in data set [1] (setting [4]) is 600 to 800 nM; in data set [1] (setting [5]), 800 ± 90 nM; in data set [2] (Homo sapiens), 1700 ± 100 nM; in data set [3] (setting [6]), 1700 ± 100 nM.

Consider `O=C(/C=C/c1ccc(C=NOCCN2CCOCC2)cc1)NO` [ST3050, (2E)-N-hydroxy-3-{4-[(2-morpholin-4-ylethoxyimino)methyl]-phenyl}-acryl-amide], for which the IC50 in data set [1] (setting [4]) was 1400 to 2900 nM; in data set [1] (setting [5]), 1700 ± 200 nM; in data set [2] (Homo sapiens), 1800 ± 100 nM; in data set [3] (setting [6]), 2900 ± 400 nM.

On to `Nc1ccccc1NC(=O)/C=C/c1ccc(C=NOCc2ccc([N+](=O)[O-])cc2)cc1` [ST3070, (2E)-N-(2-aminophenyl)-3-[4-({[(4-nitrobenzyl)oxy]imino}-methyl)phenyl]-acrylamide], for which the IC50 in data set [1] (setting [4]) was > 20000 nM; in data set [2] (Homo sapiens), 33400 ± 3900 nM; in data set [3] (setting [6]), 200000 nM.

For `O=C(O)/C=C/c1ccc(C=NOCc2ccc([N+](=O)[O-])cc2)cc1` [ST3075, (2E)-3-[4-({[(4-nitrobenzyl)oxy]imino}-methyl)phenyl]acrylic acid], the IC50 in data set [1] (setting [4]) was > 20000 nM; in data set [2] (Homo sapiens), > 20000 nM; in data set [3] (setting [6]), 21300 ± 3000 nM.

With `O=C(O)/C=C/c1ccc(C=NOCc2ccccc2)cc1` [ST3076, (2E)-3-(4-{[(benzyloxy)imino]methyl}phenyl)acrylic acid], the IC50 in data set [1] (setting [4]) and in data set [2] (Homo sapiens) was > 20000 nM each time.

In the case of `O=C(CCc1ccc(C=NOCc2ccc([N+](=O)[O-])cc2)cc1)NO` [ST3330, N-hydroxy-3-[4-({[(4-nitrobenzyl)oxy]imino}methyl)phenyl]propanamide], the IC50 came out at 950 ± 60 nM in data set [1] (setting [4]), 3100 ± 100 nM in data set [2] (Homo sapiens) and 7700 ± 1000 nM in data set [3] (setting [6]). The “cytotoxic effect on survival” value in data set [3] (NCI-H460 tumour cells) was “minor cytotoxic effect”.

With `Nc1ccccc1NC(=O)/C=C/c1ccc(C=NOCCN2CCOCC2)cc1` [ST3573, (2E)-N-(2-Amino-phenyl)-3-{4-[(2-morpholin-4-yl-ethoxyimino)methyl]-phenyl}-acrylamide hydrochloride], the IC50 in data set [1] (setting [4]) was 8870 ± 600 nM; in data set [2] (Homo sapiens) it was > 20000 nM; in data set [3] (setting [6]), > 20000 nM.

With `Cl.O=C(/C=C/c1cccc(C=NOCCN2CCOCC2)c1)NO` [ST3576, (2E)-N-hydroxy-3-{3-[(2-morpholin-4-ylethoxyimino)methyl]-phenyl}-acryl-amide hydrochloride], the IC50 was 1400 to 2900 nM in data set [1] (setting [4]); 1890 ± 80 nM in data set [1] (read-out: IC50 ± SD, NB4 (concentration which inhibits the 50% of cell survival), NB4 tumour cells, 24 h treatment, then other 48 h in drug-free medium, hydrochloride); 4000 ± 500 nM in data set [2] (Homo sapiens); 6600 ± 800 nM in data set [3] (setting [6]). The “cytotoxic effect on survival” value in data set [3] (NCI-H460 tumour cells) is on record as “minor cytotoxic effect”.
